Test results as given in patent US6632643B2, “Use of α-1,4-glucan lyase for preparation of 1,5-D-hydrofructose” (Danisco A/S, priority 1993, dated 2003).
Marks after values point to notes of the source that are not given here. One block for each molecule: values may come before it.

Columns and labels:
lyase from M. costata = assay: Relative degrading rates of the lyase from M. costata towards various substrates; type: biochemical, Morchella costata; settings: for activity (maltotetraose as 100%): purified fungal lyase, section B.1.4.3
[1] = test system: α-1,4-glucan lyase isolated from M. costata; assay: Oligosaccharide specificity and AF formation by M. costata lyase, Dionex HPLC; type: biochemical, Morchella costata; settings: 30° C.
Method: The specificity of α-1,4-glucan lyase isolated from M. costata for different oligosaccharides was tested. […] The oligosaccharides were dissolved in H2O at a concentration of 8 mg/ml. The enzyme assay contained 150 μl substrate G2/G3/G4/G5/G6/G7, 120 μl 0.1M MBS pH 6.3 and 30 μl purified enzyme. The reaction mixture was incubated for 60 min at 30° C. Afterwards the reaction was stopped by boiling for 3 min and 900 μl absolute ethanol was added for precipitation. After centrifugation at 20.000×g for 5 min at 4° C. the supernatant was transferred to a new eppendorf tube and lyophilized.
The freeze-dried samples were dissolved in 1000 μl H2O and were filtrated through a 0.22 μm Millipore filter before 25 μl of the sample was loaded on the Dionex HPLC.
Analyses were performed on a Dionex 4500i chromatography system consisting of a GPM-2 pump and a PED detector which was used in pulse-amperometric detection mode.
α-1,4-glucan lyase from M.costata hydrolyses starch to the end-product 1,5-anhydrofructose. The end-product was shown by HPLC, method 2. The enzyme assay contained 500 μl amylopectin (20 mg/ml, dissolved in H2O), 400 μl 0.1M MES pH 6.3 and 100 μl purified enzyme. The reaction mixture was incubated at 30° C. and the reaction was stopped by boiling after 30 or 120 min incubation. […]

M. costata lyase = assay: Reversible and irreversible inhibitors of the fungal lyase (M. costata); type: biochemical, Morchella costata; settings: for decrease of lyase activity (inhibition): 0.1 M inhibitor
Method: (§1) The reaction was carried out at 30 ° C. for 30 min and stopped by the addition of 3,5-dinitrosalicylic acid reagent. Optical density at 550 nm was measured after standing at room temperature for 10 min.
Under the same assay conditions and in the presence of 2 mM PCMB, the activity decreased by 60% for the M. costata lyase and 98% for the lyase from the fungal infected red algae. This means that the fungal lyase was much less sensitive to heavy metal inhibition.

α-1,4-glucan lyase = assay: Activity of the lyase towards maltosaccharides (summary); type: biochemical
[2] = test system: α-1,4-glucan lyase from the parasite-free red seaweed Gracilariopsis lemaneiformis; assay: Degradation rates of the Californian algal lyase on various substrates; type: biochemical; settings: for AF released: substrate 10 mg/ml, pH 3.8, 40 min at 45° C.
Method: Reaction conditions: The reaction mixture contained 10 mM of HOAc-NaOAc (pH 3.8). The substrate concentration was 10 mg/ml. The final volume was 100 ul after the addition of lyase and water. The reaction time was 40 min at 45° C.

M. vulgaris lyase = assay: Reversible inhibitors of the M. vulgaris lyase; type: biochemical, Morchella vulgaris; settings: 0.1 M inhibitor
Method: as §1

lyase from M. vulgaris = assay: Relative degrading rates of the lyase from M. vulgaris towards various substrates; type: biochemical, Morchella vulgaris; settings: for Activity (%) (maltotetraose = 100%): all substrates 10 mg ml^−1
Method: The activity observed for maltotetraose is treated as 100%. The final concentration of all substrates was 10 mg ml^−1.

[3] = Electrochemical oxygen consumption in methyl linoleate emulsion; settings: AF 15, 146 and 680 μM; MMb initiated; pH 5.8; 25.0 °C
Method: The activity of AF was investigated in a methyl linoleate emulsion as described by Jorgensen and Skibsted (Z. Lebensm. Unters. Forsch. (1993) 196: 423-429) with minor modifications: To 5.00 ml of a 1.33 mM methyl linoleate emulsion in 5.0 mM aqueous phosphate buffer with pH=5.8 and 0.2 w/w % Tween 20 as emulsifier was added AF in the following concentrations: 0, 15, 146 and 680μM. The oxidation in the system was initiated by addition of 50 μl 0.26 M metmyoglobin (MMb) final concentration 0.26 mM. Immediately after initiating the reaction the sample was injected to a thermostated (25.0±0.1° C.) 70 μl closed cell, effectively excluding diffusion of oxygen into the system. The oxygen consumption was measured by a Clark electrode, which was connected to a PC data collection program. The relative oxygen concentration (%) was registered every 30s.

[4] = Induction period of yogurt salad dressing with 50% oil; settings: 500 ppm; PF = IP with antioxidant / IP without
From the text: For each temperature defined as PF=IP of the oil with added antioxidant/IP of the same oil without added antioxidant

[5] = ESR analysis of hydroxyl radical scavenging (Fenton reaction, DMPO spin trap); settings: H2O2 0.17 mM, Fe2+ 4.8 μM
Method: Hydroxyl radicals were generated by a Fenton reaction with H2O2 (0.17 mM) and FeSO4 (4.8 μM). The generated radicals were trapped by 5,5-dimethyl-1-pyrroline N-oxide (DMPO, 9.7 mM). AF was added in concentrations of 1.3 mM and 6.3 mM. A water soluble extract of rosemary (Rosmarinus officinalis L.) was analyzed in a concentration of 0.25 mg/ml (in grams equivalent to 1.26 mM AF). Measurements were carried out at room temperature (20±1° C.) after 120 s and repeated for the same reaction mixture after 300 s with the following spectrometer settings: Center field 3475.60 G; sweep width 55 G; microwave power 20 mW; modulation frequency 100 kHz; modulation amplitude 1.01 G; receiver gain 1.00·10^5; conversion time 81.92 ms time constant 163.84 ms and sweep time 83.89 s.
The generated hydroxyl radicals were trapped by DMPO. The spin adduct gives rise to a characteristic 1:2:2:1 ESR spectrum. The peak height of the spectrum is proportional to the quantitative amount of generated spin adduct. Addition of both DMPO and AF will set up a competition between the spin trap and AF. A reduction of peak height will indicate a good scavenging activity of AF.

[6] = Reduction of 3,5-dinitrosalicylic acid by AF; type: physicochemical
[7] = Induction period of 50% mayonnaise in bomb calorimeter, 80° C., pure O2; settings: +500 ppm
Method: In the test procedure the anti-oxidants were added to the mayonnaise to provide an anti-oxidant concentration in the order of about 500 ppm. The mayonnaise was then placed in a bomb calorimeter at temperature 80° C. containing pure O2. An induction period to the onset of substantial oxidation of the product is then measured.

[8] = test system: lyase from the fungal infected algae; assay: Effect of reaction media on production of AF by the lyase; type: biochemical, fungal infected Gracilariopsis lemaneiformis; settings: NaCl 0.85% (0.145 M) in the reaction mixture
From the text: The production of AF using either pure water or 0.85% NaCl as reaction medium decreased the yield.

[9] = test system: lyase from the fungal infected red algae; assay: Inhibition, activation and stabilisation of the lyase from fungal infected algae; type: biochemical, fungal infected Gracilariopsis lemaneiformis
Method: […] The reaction was carried out at 30° C. for 30 min and stopped by the addition of 3,5-dinitrosalicylic acid reagent. Optical density at 550 nm was measured after standing at room temperature for 10 min.

[10] = test system: α-1,4-glucan lyase from the parasite-free red seaweed Gracilariopsis lemaneiformis; assay: PCMB inhibition of the lyase from Californian alga; type: biochemical; settings: final concentration 2 mM
Method: 7. At a final concentration of 2 mM, p-chloromercuribenzoic acid (PCMB) inhibited the lyase activity by 96%, indicating the —SH group(s) is essential for the enzymatic activity.

[11] = test system: lyase from the fungal infected Gracilariopsis lemaneiformis; assay: Reaction rates with glycogen and amylopectin, lyase from fungal infected Gracilariopsis lemaneiformis; type: biochemical

Molecule: OC[C@H]1O[C@H](O[C@H]2[C@H](O)[C@@H](O)C(O)O[C@@H]2CO)[C@H](O)[C@@H](O)[C@@H]1O (mixture of isomers) [Maltose, maltose]
- activity (maltotetraose as 100%) (lyase from M. costata): 2%
- 1,5-anhydrofructose formed ([1]; 8 mg/ml substrate, pH 6.3, 60 min): almost no 1,5-anhydrofructose was formed
- decrease of lyase activity (inhibition) (M. costata lyase; Amylopectin 2%): (67.2%)
- decrease of lyase activity (inhibition) (M. costata lyase; Glycogen 2%): (49.7%)
- lyase activity towards maltosaccharide (α-1,4-glucan lyase): low activity
- AF released [2]: 657 nmol
- inhibition of lyase reaction (M. vulgaris lyase; Amylopectin (1%)): 80%
- inhibition of lyase reaction (M. vulgaris lyase; Glycogen (1%)): 57%
- Activity (%) (maltotetraose = 100%) (lyase from M. vulgaris): 10.1%

- inhibition of enzyme activity by the endproduct ([1]; amylopectin, 30 and 120 min incubation): not inhibited
Molecule: O=C1CO[C@H](CO)[C@@H](O)[C@@H]1O [AF, 1,5-D-anhydrofructose]
- oxygen consumption (relative oxygen concentration) [3]: a lag-phase is observed
- PF [4]: 1.06
- Peak height [120 s] ([5]; Anhydro fructose 1.3 mM): 2634
- Peak height [300 s] ([5]; Anhydro fructose 1.3 mM): 2545
- Peak height [120 s] ([5]; Anhydro fructose 6.3 mM): 1781
- Peak height [300 s] ([5]; Anhydro fructose 6.3 mM): 1900
- reduction of 3,5-dinitrosalicylic acid to 3-amino-5-nitrosalicylic acid [6]: can easily reduce
- IP (hours), Induction Period [7]: 32.0 h

- degradation (AF detectable on TLC plates) (lyase from M. costata; incubated for 48 h): no AF detectable
- decrease of lyase activity (inhibition) (M. costata lyase; Amylopectin 2%): 7%
- decrease of lyase activity (inhibition) (M. costata lyase; Glycogen 1% (10 mg/ml)): 0.000%
- decrease of lyase activity (inhibition) (M. costata lyase; Glycogen 1% (10 mg/ml), listed as glucose): not affected
- inhibition of lyase reaction (M. vulgaris lyase; Amylopectin (1%)): 28%
- inhibition of lyase reaction (M. vulgaris lyase; Glycogen (1%)): 5%
- degradation (AF detectable on TLC plates) (lyase from M. vulgaris; incubated for 48 h): no AF detectable
Molecule: O=C[C@H](O)[C@@H](O)[C@H](O)[C@H](O)CO [Glucose, glucose]
- degradation by the lyase [2]: not able to degrade

Molecule: OCC1OC(OC2C(CO)OC(OC3C(CO)OC(O)C(O)C3O)C(O)C2O)C(O)C(O)C1O (centres unmarked) [Maltotriose, maltotriose]
- activity (maltotetraose as 100%) (lyase from M. costata): 56%
- relative degrading rate (maltotetraose = 100%) (lyase from M. costata; substrate 2 mg/ml): 40.6%
- relative degrading rate (maltotetraose = 100%) (lyase from M. costata; substrate 4 mg/ml): 58.6%
- relative degrading rate (maltotetraose = 100%) (lyase from M. costata; substrate 10 mg/ml): 56.0%
- lyase activity towards maltosaccharide (α-1,4-glucan lyase): lower activity
- AF released [2]: 654 nmol
- Activity (%) (maltotetraose = 100%) (lyase from M. vulgaris): 49.8%

Molecule: [Cl-].[Na+] [NaCl]
- increase of AF yield [8]: up to 1 -fold

Molecule: O=C(O)c1cc[c]([Hg][Cl])cc1 [PCMB, p-chloromercuribenzoic acid]
- activity decreased by ([9]; 2 mM PCMB): 98%
- inhibition of lyase activity [10]: 96%
- activity decreased by (M. costata lyase; 2 mM PCMB): 60%

- activity decreased to (remaining activity) ([9]; 25 μM, amylopectin 2%): 10.4%
- lyase activity ([9]; 100 μM, amylopectin 2%): completely lost
- activity decreased to (remaining activity) (M. costata lyase; 25 μM, amylopectin 2%): 10.4%
- lyase activity (M. costata lyase; 100 μM, amylopectin 2%): completely lost
Molecule: OC[C@H]1NC[C@H](O)[C@@H](O)[C@@H]1O [deoxyjirimycin]

Molecule: Amylopectin
- degradation by the fungal lyase (lyase from M. costata): also degraded
- relative degrading rate (maltotetraose = 100%) (lyase from M. costata; substrate 10 mg/ml): 106.5%
- stabilizing effect on the lyase ([9]; soluble and immobilized enzyme system): stabilizing effect
- substrate concentration at which half of the maximal velocity rate was reached [2]: 3.76 mg/mL
- AF released [2]: 732 nmol
- Activity (%) (maltotetraose = 100%) (lyase from M. vulgaris): 139.9%
- relative reaction rates ([11]; 25 C.): 0.818^a
- relative reaction rates ([11]; 30 C.): 1.133^a
- relative reaction rates ([11]; 45 C.): 1.17^a
